# Experimental data: patent US20220395553A1, “CXCR4 ANTAGONIST PEPTIDES” (COHBAR, INC., priority 2019, published 2022)
# Square brackets hold non-standard residues; d marks the D form. Peptide text beside a SMILES is read from it.
# Assays:
# human CXCR4 [1] = biological target: T1, human CXCR4 (Homo sapiens, UniProt P61073); assay: IC50 for inhibition of CXCR4 activation, β-Arrestin recruitment (Example 22); format: cell-based; set-up: host or cells: C2C12 (mouse myoblast) CXCR4 β-Arrestin PathHunter cell line
# Experimental: The assay was run with the DiscoverX protocol. β-Arrestin recruitment assays were performed by Eurofins-DiscoverX (Fremont, Calif.) using C2C12 CXCR4 β-Arrestin cell line (co-expressing ProLink tagged human CXCR4 and Enzyme Acceptor tagged β-Arrestin) and PathHunter detection kit. Peptides were initially prepared as 1 mM stock in H2O and tested in ten (10)-step concentration response curves using 3-fold dilution steps with 1 μM as highest concentration; a concentration range of 1 μM-0.05 nM was tested. C2C12 CXCR4 β-Arrestin cells were seed onto 384-well plates in standard medium. […] At the end of the 90 min incubation period, β-Arrestin recruitment in response to various treatments was quantified using a chemiluminescent complementation reporter assay to measure association of tagged human […] (ProLink tag) and tagged β-Arrestin (Enzyme Acceptor tag).
# human CXCR4 [2] = biological target: T1, human CXCR4; assay: CXCR4/CXCL12 binding, HTRF format, single concentration (Example 23); set-up: host or cells: HEK293 (Tag-lite CXCR4 cells, frozen aliquots, transient expression); conditions: 15 nM CXCR4R fluorescent probe, 3 hours, HEK293 Tag-lite CXCR4 cells
# Experimental: Peptides were initially prepared as 1 mM stock in H2O and tested at a final concentration of 400 nM. Following the manufacture's protocol, a frozen aliquot of Tag-lite CXCR4 cells was thawed and immediately seeded onto 384-well plates in TLB. Immediately following the addition of cells, 400 nM peptide (final concentration) in TLB was added to the appropriate well. Then 15 nM (final concentration; EC80) of CXCR4R fluorescent probe was added to each well to initiate the HTRF assay. The plates were covered in aluminum foil and left at room temperature for 3 hours. Following the 3 hour incubation period, the plates were removed from the incubator and fluorescence measured using a Cytation 1 plate reader using a HTRF filter cube ([…]; BioTek; Winooski, Vt.). According manufacture's instruction data reduction was performed by calculating the ratio of 665 nm signal (TRF of 665 nm excitation by 620 emission; amount of CXCR4R fluorescent probe bound to terbium labeled CXCR receptor)/620 nm signal (620 excitation by 330 nm light source; normalization factor for amount of terbium labeled CXCR4 receptor in well)×10,000.
# [3] = test system: CXCR4/CXCL12 induced p-MEK; assay: CXCR4/CXCL12 induced p-MEK in Jurkat cells (ELISA); format: cell-based, human; conditions: 5 nM CXCL12, 5 min
# Experimental: The assay was performed following a protocol similar to that described by Peng, et al., Mol Cancer Ther., 14 480-90 (2015), incorporated herein by reference. […] Jurkat cells were resuspended in standard growth media (RPMI+GlutaMax media; Gibco/Thermo Fisher Scientific; Gaithersburg, Md.) containing 10% FBS and 1% penicillin/streptomycin. Assays were performed using fresh or conditioned media (media cultured overnight in presence of Jurkat cells) to resuspend cells at density of 2×10^6 cells/ml and […] of cell suspension was immediately placed in 1.7 ml microfuge tubes. […] Following the 5 min incubation, cells were centrifuged at 1000×g for 4 min at 4° C. The supernatant was removed and the cells were rinsed with 1 ml of HBSS containing calcium and magnesium. The HBSS was removed and the cells were immediately lysed in 150 l of lysis buffer included with Phospho-MEK1 (Ser217/221) Sandwich ELISA kit (Cell Signaling Technology; Danvers, Mass.); lysis buffer was supplemented with 1 m M PMSF (Millipore-Sigma; Saint Louis, Mo.) and Halt protease/phosphatase inhibitor cocktail (Thermo-Fisher; Waltham, Mass.) prior to use. The samples were then placed on ice for 10 min and vortexed periodically. Following the lysis step, the samples were centrifuged at 12,500 rpm for 10 min at 4° C. p-MEK expression in each of the samples was then measure using Phospho-MEK1 (Ser217/221) Sandwich ELISA kit according to manufacturer's instructions. Absorbance was measured using a Cytation 3 plate reader at […] (BioTek; Winooski, Vt.).
# T1 sequence (P61073 whole entry): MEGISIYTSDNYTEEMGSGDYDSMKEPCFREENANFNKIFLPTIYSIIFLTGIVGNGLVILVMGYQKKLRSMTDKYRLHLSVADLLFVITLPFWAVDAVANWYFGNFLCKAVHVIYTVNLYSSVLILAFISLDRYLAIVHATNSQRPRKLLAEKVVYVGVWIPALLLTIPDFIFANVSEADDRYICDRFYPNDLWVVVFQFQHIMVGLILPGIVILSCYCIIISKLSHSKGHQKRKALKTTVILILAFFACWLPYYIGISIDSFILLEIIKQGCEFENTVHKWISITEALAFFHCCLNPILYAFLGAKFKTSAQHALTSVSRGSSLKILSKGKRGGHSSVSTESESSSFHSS
Compound,IC50 (human CXCR4 [1]) [nM],Percent Inhibition of CXCR4/CXCL12 Binding (400 nM peptide) (human CXCR4 [2]) [%],Percent Inhibition of CXCR4/CXCL12 Induced p-MEK (100 nM Test Article) [3] [%],Percent Inhibition of CXCR4/CXCL12 Induced p-MEK (1 μM Test Article) [3] [%]
CC(C)C[C@H](NC(=O)[C@H](CO)NC(=O)[C@H](CO)NC(=O)[C@H](CCCNC(=N)N)NC(=O)[C@@H](C)NC(=O)[C@H](CO)NC(=O)[C@H](Cc1c[nH]cn1)NC(=O)[C@H](Cc1c[nH]cn1)NC(=O)[C@H](Cc1ccc(O)cc1)NC(=O)[C@H](CCCNC(=N)N)NC(=O)[C@H](CCCNC(=N)N)NC(=O)[C@@H](N)CC(C)C)C(=O)N[C@@H](CCCNC(=N)N)C(=O)N1CCC[C@H]1C(=O)N[C@@H](Cc1ccc(O)cc1)C(=O)N[C@H](C(=O)N[C@@H](CCCCN)C(=O)O)[C@@H](C)O [compound 6] (H-LRRYHHS[dA]RSSLRPYTK-OH; N-terminus and C-terminus assumed),8,−10,–,–
CC(C)C[C@H](NC(=O)[C@H](CO)NC(=O)[C@H](CO)NC(=O)[C@H](CCCNC(=N)N)NC(=O)[C@@H](NC(=O)[C@H](CO)NC(=O)[C@H](Cc1c[nH]cn1)NC(=O)[C@H](Cc1c[nH]cn1)NC(=O)[C@H](Cc1ccc(O)cc1)NC(=O)[C@@H](N)CCCNC(=N)N)C(C)C)C(=O)N[C@@H](CCCNC(=N)N)C(=O)N1CCC[C@H]1C(=O)N[C@@H](Cc1ccc(O)cc1)C(=O)N[C@H](C(=O)N[C@@H](CCCCN)C(=O)O)[C@@H](C)O [compound 11] (H-RYHHSVRSSLRPYTK-OH; N-terminus and C-terminus assumed),175,−9,–,–
CC(C)C[C@H](NC(=O)[C@H](CO)NC(=O)[C@H](CO)NC(=O)[C@H](CCCNC(=N)N)NC(=O)[C@@H](C)NC(=O)[C@H](CO)NC(=O)[C@H](Cc1c[nH]cn1)NC(=O)[C@H](Cc1c[nH]cn1)NC(=O)[C@H](Cc1ccc(O)cc1)NC(=O)[C@H](CCCNC(=N)N)NC(=O)[C@H](CCC(=O)O)NC(=O)[C@@H](C)N)C(=O)N[C@@H](CCCNC(=N)N)C(=O)N1CCC[C@H]1C(=O)N[C@@H](Cc1ccc(O)cc1)C(=O)N[C@H](C(=O)N[C@@H](CCCCN)C(=O)O)[C@@H](C)O [compound 35] (H-[dA]ERYHHS[dA]RSSLRPYTK-OH; N-terminus and C-terminus assumed),–,−13,−7,−6
CC(C)C[C@H](NC(=O)[C@H](CO)NC(=O)[C@H](CO)NC(=O)[C@H](CCCNC(=N)N)NC(=O)[C@@H](NC(=O)[C@H](CO)NC(=O)[C@H](CCC(N)=O)NC(=O)[C@H](Cc1c[nH]cn1)NC(=O)[C@H](Cc1ccc(O)cc1)NC(=O)[C@H](CCCNC(=N)N)NC(=O)[C@H](CCC(=O)O)NC(=O)[C@@H](N)CC(C)C)C(C)C)C(=O)N[C@@H](CCCNC(=N)N)C(=O)N1CCC[C@H]1C(=O)N[C@@H](Cc1ccc(O)cc1)C(=O)N[C@H](C(=O)N[C@@H](CCCCN)C(=O)O)[C@@H](C)O [compound 51] (H-LERYHQSVRSSLRPYTK-OH; N-terminus and C-terminus assumed),–,−2,–,–
CC(C)C[C@H](NC(=O)[C@H](CO)NC(=O)[C@H](CO)NC(=O)[C@H](CCC(=O)O)NC(=O)[C@@H](NC(=O)[C@H](CO)NC(=O)[C@H](Cc1c[nH]cn1)NC(=O)[C@H](Cc1c[nH]cn1)NC(=O)[C@H](Cc1ccc(O)cc1)NC(=O)[C@H](CCCNC(=N)N)NC(=O)[C@H](CCCNC(=N)N)NC(=O)[C@@H](N)CC(C)C)C(C)C)C(=O)N[C@@H](CCCNC(=N)N)C(=O)N1CCC[C@H]1C(=O)N[C@@H](Cc1ccc(O)cc1)C(=O)N[C@H](C(=O)N[C@@H](CCCCN)C(=O)O)[C@@H](C)O [compound 62] (H-LRRYHHSVESSLRPYTK-OH; N-terminus and C-terminus assumed),–,4,–,–
CC(C)C[C@H](NC(=O)[C@H](CO)NC(=O)[C@H](CO)NC(=O)[C@H](CCCNC(=N)N)NC(=O)[C@@H](C)NC(=O)[C@H](CO)NC(=O)[C@H](Cc1c[nH]cn1)NC(=O)[C@H](Cc1c[nH]cn1)NC(=O)[C@H](Cc1ccc(O)cc1)NC(=O)[C@H](CCCNC(=N)N)NC(=O)[C@H](CCCNC(=N)N)NC(=O)[C@@H](N)CC(C)C)C(=O)N[C@@H](CCC(=O)O)C(=O)N1CCC[C@H]1C(=O)N[C@@H](Cc1ccc(O)cc1)C(=O)N[C@H](C(=O)N[C@@H](CCCCN)C(=O)O)[C@@H](C)O [compound 65] (H-LRRYHHS[dA]RSSLEPYTK-OH; N-terminus and C-terminus assumed),–,−5,–,–
CC(C)C[C@H](NC(=O)[C@H](CO)NC(=O)[C@H](CO)NC(=O)[C@H](CC(=O)O)NC(=O)[C@@H](NC(=O)[C@H](CO)NC(=O)[C@H](Cc1c[nH]cn1)NC(=O)[C@H](Cc1c[nH]cn1)NC(=O)[C@H](Cc1ccc(O)cc1)NC(=O)[C@H](CCCNC(=N)N)NC(=O)[C@H](CCCNC(=N)N)NC(=O)[C@@H](N)CC(C)C)C(C)C)C(=O)N[C@@H](CCCNC(=N)N)C(=O)N1CCC[C@H]1C(=O)N[C@@H](Cc1ccc(O)cc1)C(=O)N[C@H](C(=O)N[C@@H](CCCCN)C(=O)O)[C@@H](C)O [compound 66] (H-LRRYHHSVDSSLRPYTK-OH; N-terminus and C-terminus assumed),–,−5,−7,13
CC(C)C[C@H](NC(=O)[C@H](CO)NC(=O)[C@H](CO)NC(=O)[C@H](CC(=O)O)NC(=O)[C@@H](C)NC(=O)[C@H](CO)NC(=O)[C@H](Cc1c[nH]cn1)NC(=O)[C@H](Cc1c[nH]cn1)NC(=O)[C@H](Cc1ccc(O)cc1)NC(=O)[C@H](CCCNC(=N)N)NC(=O)[C@H](CCCNC(=N)N)NC(=O)[C@@H](N)CC(C)C)C(=O)N[C@@H](CCCNC(=N)N)C(=O)N1CCC[C@H]1C(=O)N[C@@H](Cc1ccc(O)cc1)C(=O)N[C@H](C(=O)N[C@@H](CCCCN)C(=O)O)[C@@H](C)O [compound 68] (H-LRRYHHS[dA]DSSLRPYTK-OH; N-terminus and C-terminus assumed),–,−10,–,–
CC(C)C[C@H](NC(=O)[C@H](CO)NC(=O)[C@H](CO)NC(=O)[C@H](CCCNC(=N)N)NC(=O)[C@@H](C)NC(=O)[C@H](CO)NC(=O)[C@H](Cc1c[nH]cn1)NC(=O)[C@H](Cc1c[nH]cn1)NC(=O)[C@H](Cc1ccc(O)cc1)NC(=O)[C@H](CCCNC(=N)N)NC(=O)[C@H](CCCNC(=N)N)NC(=O)[C@@H](N)CC(C)C)C(=O)N[C@@H](CC(=O)O)C(=O)N1CCC[C@H]1C(=O)N[C@@H](Cc1ccc(O)cc1)C(=O)N[C@H](C(=O)N[C@@H](CCCCN)C(=O)O)[C@@H](C)O [compound 69] (H-LRRYHHS[dA]RSSLDPYTK-OH; N-terminus and C-terminus assumed),–,−5,–,–
CC(C)C[C@H](NC(=O)[C@H](CO)NC(=O)[C@H](CO)NC(=O)[C@H](CCCNC(=N)N)NC(=O)[C@@H](C)NC(=O)[C@H](CO)NC(=O)[C@H](Cc1c[nH]cn1)NC(=O)[C@H](Cc1c[nH]cn1)NC(=O)[C@H](Cc1ccc(O)cc1)NC(=O)[C@H](CCCNC(=N)N)NC(=O)[C@H](CCC(=O)O)NC(=O)[C@@H](N)CC(C)C)C(=O)N[C@@H](CCCNC(=N)N)C(=O)N1CCC[C@H]1C(=O)N[C@@H](Cc1ccc(O)cc1)C(=O)N[C@@H](CO)C(=O)N[C@@H](CCCCN)C(=O)O [compound 78] (H-LERYHHS[dA]RSSLRPYSK-OH; N-terminus and C-terminus assumed),–,72,29,46
